# Measurements from patent US6667303B1, “Aryl substituted 1,4-diazepanes and method of use thereof” (Wyeth, priority 2001, dated 2003).
# Target: T1, human 5-hydroxytryptamine2C (h5HT2C) receptor (Homo sapiens, UniProt P28335)
# T1 construct: expressed in transfected cells; host or cells: CHO (Chinese Hamster Ovary) cells; membrane preparation
# T1 sequence (P28335 33-458): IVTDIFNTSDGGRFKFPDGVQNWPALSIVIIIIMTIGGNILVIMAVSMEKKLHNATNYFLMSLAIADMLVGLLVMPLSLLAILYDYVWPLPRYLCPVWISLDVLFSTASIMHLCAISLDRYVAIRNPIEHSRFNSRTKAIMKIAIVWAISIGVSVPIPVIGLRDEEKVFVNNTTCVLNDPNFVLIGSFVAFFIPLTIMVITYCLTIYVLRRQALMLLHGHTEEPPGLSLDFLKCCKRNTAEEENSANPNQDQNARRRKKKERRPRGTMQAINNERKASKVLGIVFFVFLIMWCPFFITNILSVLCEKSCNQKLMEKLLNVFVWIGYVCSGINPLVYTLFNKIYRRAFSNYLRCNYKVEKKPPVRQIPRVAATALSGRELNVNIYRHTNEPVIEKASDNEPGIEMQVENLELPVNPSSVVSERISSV
# Test: 5HT2C receptor binding assay ([125I] DOI displacement)
# Details: not given
# Experimental: To determine for compounds of Formula (I) the affinity for the 5HT2C receptor, the following 5HT2C receptor binding assay was performed. A CHO (Chinese Hamster Ovary) cell line transfected with the cDNA expressing the human 5-hydroxytryptamine2C (h5HT2C) receptor was maintained in DMEM (Dulbecco's Modified Eagle Media) supplied with fetal calf serum, glutamine, and the markers: guaninephosphoribosyl transferase (GTP) and hypoxanthinethymidine (HT). The cells were allowed to grow to confluence in large culture dishes with intermediate changes of media and splitting. Upon reaching confluence, the cells were harvested by scraping. The harvested cells were suspended in half volume of fresh physiological phosphate buffered saline (PBS) solution and centrifuged at low speed (900×g). This operation was repeated once more. The collected cells were then homogenized with a polytron at setting #7 for 15 sec in ten volumes of 50 mM Tris.HCl, pH 7.4 and 0.5 mM EDTA. The homogenate was centrifuged at 900×g for 15 min to remove nuclear particles and other cell debris. The pellet was discarded and the supernatant fluid recentrifuged at 40,000×g for 30 min. The resulting pellet was resuspended in a small volume of Tris.HCl buffer and the tissue protein content was determined in aliquots of 10-25 microliter (μl) volumes. Bovine Serum Albumin (BSA) was used as the standard in the protein determination by the method of Lowry et al., (J. Biol. Chem., 193:265 (1951)). The volume of the suspended cell membranes was adjusted with 50 mM Tris.HCl buffer containing: 0.1% ascorbic acid, 10 mM pargyline and 4 mM CaCl2 to give a tissue protein concentration of 1-2 mg per ml of suspension. The preparation membrane suspension (many times concentrated) was aliquoted in 1 ml volumes and stored at −70° C. until used in subsequent binding experiments.
# Binding experiments were performed in a 96 well microtiter plate format, in a total volume of 200 μl. To each well was added: 60 μl of incubation buffer made in 50 mM Tris.HCl buffer, pH 7.4 and containing 4 mM CaCl2; 20 μl of […] DOI [1-(4-iodo-2,5-dimethoxyphenyl)-2-aminopropane] (S.A., 2200 Ci/mmol, NEN Life Science).
# DOI. The reaction was initiated by the final addition of 100.0 μl of tissue suspension containing 50 μg of receptor protein. Nonspecific binding was measured in the presence of 1 μM unlabeled DOI added in 20.0 μl volume. Test compounds are added in […]. The mixture was incubated at room temperature for 60 min. The incubation was stopped by rapid filtration. The bound ligand-receptor complex was filtered off on a 96 well unifilter with a Packard® Filtermate 196 Harvester. The bound complex caught on the filter disk was dried in a vacuum oven heated to 60° C. and the radioactivity measured by liquid scintillation with 40 μl Microscint-20 scintillant in a Packard TopCount® equipped with six (6) photomultiplier detectors.
# Description of this method can be found in Sanders-Bush, E. et al., Putative selective 5-HT2C antagonists block serotonin 5-HT1C receptors in the choroid plexus, J. Pharmacol. Exper. Ther., 247: 169-173 (1988), and Akiyoshi, J., et al., Effects of antidepressants on intracellular calcium mobilization in CHO cells transfected with the human 5-HT2C receptors, Biol. Psychiatry, 39:1000-1008 (1996).
# Specific binding is defined as the total radioactivity bound less the amount bound in the presence of 1 μM unlabeled DOI. Binding in the presence of varying concentrations of test drugs was expressed as percent of specific binding in the absence of drug. […] Alternatively, a linear regression line of decline of data points was plotted, from which the IC50 value was read off the curve and the Ki value determined by solving the following equation: [formula]
row,Structure (SMILES),Ki [nM]
1,"COc1cc(CC(C)N)c(OC)cc1I (stereo not shown) [DOI, 1-(4-iodo-2,5-dimethoxyphenyl)-2-aminopropane, reference compound]",19.5
2,"C=CCN1CCCN(c2ccc3c4c(cccc24)C(=O)N3CC2CCC2)CC1 [Example 22, 6-(4-allyl-1,4-diazepan-1-yl)-1-(cyclobutylmethyl)benzo[cd]indol-2(1H)-one]",241
3,"CC(C)CN1CCCN(c2ccc3c4c(cccc24)C(=O)N3CC2CCC2)CC1 [Example 24, 1-(cyclobutylmethyl)-6-(4-isobutyl-1,4-diazepan-1-yl)benzo[cd]indol-2(1H)-one]",260
4,"O=C1c2cccc3c(N4CCCN(CC5CCC5)CC4)ccc(c23)N1CC1CCC1 [Example 32, 1-(cyclobutylmethyl)-6-[4-(cyclobutylmethyl)-1,4-diazepan-1-yl]benzo[cd]indol-2(1H)-one]",256
5,"CCCCCN1CCCN(c2ccc3c4c(cccc24)C(=O)N3CCCC(F)(F)F)CC1 [Example 80, 6-(4-pentyl-1,4-diazepan-1-yl)-1-(4,4,4-trifluorobutyl)benzo[cd]indol-2(1H)-one]",190

# Same assay, conditions: membranes of CHO cells expressing h5HT2C; radioligand [125I] DOI; room temperature, 60 min; read-out: 5HT2C Binding Affinity Ki
row,Structure (SMILES),Ki [nM]
1,"COc1ccc(CN2C(=O)c3cccc4c(N5CCCN(CC(C)(C)C)CC5)ccc2c34)cc1 [Example 5, 1-(4-methoxybenzyl)-6-(4-neopentyl-1,4-diazepan-1-yl)benzo[cd]indol-2(1H)-one]",132
2,COc1ccc(CN2C(=O)c3cccc4c(N5CCCN(CCCc6ccccc6)CC5)ccc2c34)cc1 [Example 11],165
3,"COc1ccc(CN2C(=O)c3cccc4c(N5CCCN(CC6CCC6)CC5)ccc2c34)cc1 [Example 13, 6-[4-(cyclobutylmethyl)-1,4-diazepan-1-yl]-1-(4-methoxybenzyl)benzo[cd]indol-2(1H)-one]",257
4,"O=C1c2cccc3c(N4CCCN(CCc5ccccc5)CC4)ccc(c23)N1CC1CCC1 [Example 28, 1-(cyclobutylmethyl)-6-[4-(2-phenylethyl)-1,4-diazepan-1-yl]benzo[cd]indol-2(1H)-one]",178
5,"CCCCCN1CCCN(c2ccc3c4c(cccc24)C(=O)N3CC)CC1 [Example 44, 1-ethyl-6-(4-pentyl-1,4-diazepan-1-yl)benzo[cd]indol-2(1H)-one]",247
6,"O=C1c2cccc3c(N4CCCN(CCc5ccccc5)CC4)ccc(c23)N1CCCC(F)(F)F [Example 85, 6-[4-(2-phenylethyl)-1,4-diazepan-1-yl]-1-(4,4,4-trifluorobutyl)benzo[cd]indo-2(1H)-one]",112
7,"CCCN1CCCN(c2ccc3c4c(cccc24)C(=O)N3Cc2ccc(OC)cc2)CC1 [Example 88, 1-(4-methoxybenzyl)-6-(4-propyl-1,4-diazepan-1-yl)benzo[cd]indol-2(1H)-one]",243

# Target: T2, human serotonin 5HT2C receptor (Homo sapiens, UniProt P28335)
# T2 construct: expressed in transfected cells; host or cells: CHO (Chinese Hamster Ovary) cells; membrane preparation
# T2 sequence (P28335 33-458): T1 sequence (P28335 33-458)
# Test: saturation binding with increasing concentrations of [125I] DOI
# Details: not given
# Experimental: To determine for compounds of Formula (I) the affinity for the 5HT2C receptor, the following 5HT2C receptor binding assay was performed. A CHO (Chinese Hamster Ovary) cell line transfected with the cDNA expressing the human 5-hydroxytryptamine2C (h5HT2C) receptor was maintained in DMEM (Dulbecco's Modified Eagle Media) supplied with fetal calf serum, glutamine, and the markers: guaninephosphoribosyl transferase (GTP) and hypoxanthinethymidine (HT). The cells were allowed to grow to confluence in large culture dishes with intermediate changes of media and splitting. Upon reaching confluence, the cells were harvested by scraping. The harvested cells were suspended in half volume of fresh physiological phosphate buffered saline (PBS) solution and centrifuged at low speed (900×g). This operation was repeated once more. […] The resulting pellet was resuspended in a small volume of Tris.HCl buffer and the tissue protein content was determined in aliquots of 10-25 microliter (μl) volumes. […]
# The dissociation constant, KD of [^125I] […] Nonspecific binding was measured in the presence of 1 μM unlabeled DOI added in 20.0 μl volume. […] The bound complex caught on the filter disk was dried in a vacuum oven heated to 60° C. and the radioactivity measured by liquid scintillation with 40 μl Microscint-20 scintillant in a Packard TopCount® equipped with six (6) photomultiplier detectors.
row,Structure (SMILES),Kd [nM]
1,"COc1cc(CC(C)N)c(OC)cc1I (stereo not shown) [[^125I] DOI, 1-(4-iodo-2,5-dimethoxyphenyl)-2-aminopropane]",0.4
